Test results: patent publication US10221163B2 (priority 2015, dated 2019)
Read-outs that look alike come from different tables or passages of the source.

Legend:
[1] = test system: Pseudomonas aeruginosa MB9798 vs MB9799
Source text: The strain background was Pseudomonas aeruginosa PAO1.
The strain set was then used as a pair to determine the effect of metallo-β-lactamase inhibitors of Formula I on the MIC of imipenem and/or ceftazidime. A fixed concentration of antibiotic was included in standard microbroth MIC tests, usually at the CLSI (Clinical and Laboratory Standards Institute) breakpoint concentration. A fixed amount of a class A/C beta-lactamase inhibitor was also included to inhibit the resident Pseudomonas AmpC enzyme. A serial titration of the metallo-β-lactamase inhibitor was included and the concentration of metallo-β-lactamase inhibitor which restores susceptibility of the strain to the included antibiotic was recorded. That concentration of metallo-β-lactamase inhibitor was then compared between the two strains to determine the fold difference between the efflux+ (MB9798) and efflux− (MB9799) strains. This was taken as an indication of the extent to which the MBLi is subject to efflux.

[2] = test system: Pseudomonas aeruginosa efflux− (MB9799), IMP-1; format: cell-based; conditions: C, D serine β-lactamase inhibitor closely related to relebactam; for P. aeruginosa expressing IMP-1, efflux − (MB9799) MITC95: concentration restoring susceptibility to imipenem at 2 μg/mL in the presence of a class A; for Concentration of metallo-β-lactamase inhibitor which restores susceptibility of efflux − (MB9799) strain to imipenem: imipenem at 2 μg/mL, in the presence of a class A
How it was run: (§1)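 PAO1 pair, broth microdilution; fixed β-lactam (imipenem/ceftazidime) at ~CLSI breakpoint + fixed class A/C BLI for AmpC; serial MBLi titration; endpoint = MBLi conc. restoring susceptibility; MB9798:MB9799 ratio = efflux liability.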

[3] = target: NDM-1 (Klebsiella pneumoniae, UniProt C7C422); assay: biochemical; format: biochemical; conditions: fluorescence assay, CCF2-FA substrate, 1 pM enzyme, 2 hours at 25° C.; read-out: NDM-1 IC50
Chain of NDM-1 (C7C422 whole entry, looked up, species assumed): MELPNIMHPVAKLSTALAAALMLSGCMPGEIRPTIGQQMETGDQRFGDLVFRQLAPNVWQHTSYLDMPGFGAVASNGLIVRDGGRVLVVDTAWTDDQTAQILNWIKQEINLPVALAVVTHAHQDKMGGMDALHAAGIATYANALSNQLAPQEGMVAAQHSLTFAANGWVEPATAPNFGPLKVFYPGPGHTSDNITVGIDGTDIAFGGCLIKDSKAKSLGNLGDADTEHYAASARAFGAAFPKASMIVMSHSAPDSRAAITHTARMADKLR
How it was run: (§2)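 Two-hour, 25° C incubation of enzyme with inhibitor and CCF2-FA (7-hydroxycoumarin–cephalosporin–fluorescein). Fluorescence read-out; IC50 via 4-parameter fit.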

[4] = target: IMP-1 (Serratia marcescens, UniProt P52699); assay: biochemical; format: biochemical; conditions: fluorescence assay, CCF2-FA substrate, 2 pM enzyme, 2 hours at 25° C.; read-out: IMP-1 IC50
Chain of IMP-1 (P52699 whole entry, looked up, species assumed): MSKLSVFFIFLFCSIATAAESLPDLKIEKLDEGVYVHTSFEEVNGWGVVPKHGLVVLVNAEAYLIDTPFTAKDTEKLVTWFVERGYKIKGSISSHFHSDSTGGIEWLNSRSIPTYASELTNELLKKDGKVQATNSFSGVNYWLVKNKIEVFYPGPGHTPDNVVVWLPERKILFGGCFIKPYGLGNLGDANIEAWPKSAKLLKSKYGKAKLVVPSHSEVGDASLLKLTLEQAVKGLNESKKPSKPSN
How it was run: as §2

[5] = test system: Pseudomonas aeruginosa efflux+ (MB9798), IMP-1; format: cell-based; parameters: Concentration of metallo-β-lactamase inhibitor which restores susceptibility of efflux + (MB9798) strain to imipenem: unit not given here; conditions: C, D serine β-lactamase inhibitor closely related to relebactam; for P. aeruginosa expressing IMP-1, efflux + (MB9798) MITC95: concentration restoring susceptibility to imipenem at 2 μg/mL in the presence of a class A; for Concentration of metallo-β-lactamase inhibitor which restores susceptibility of efflux + (MB9798) strain to imipenem: imipenem at 2 μg/mL, in the presence of a class A
How it was run: as §1

[6] = test system: Serratia marcescens expressing IMP-1 (CL5741); format: cell-based; conditions: for Serratia marcescens MITC95: IMP-1 strain CL5741, with imipenem 1 μg/ml, 95% inhibition of growth; for Serratia marcescens expressing IMP-1 (CL5741) MITC95: with imipenem 1 μg/ml, 95% inhibition of bacterial growth
How it was run: (§3)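 Clinical isolates (E. coli NDM-1, S. marcescens IMP-1, K. pneumoniae VIM-1) were diluted 1:100 from saline suspension into 1.1×CAMHB and exposed to test compound with imipenem at 1 μg/ml. Plates were incubated at 35° C for 22 hours to 24 hours, and growth was read by absorbance.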

[7] = test system: Klebsiella pneumoniae expressing VIM-1 (IHMA599644); format: cell-based; conditions: for Klebsiella pneumoniae MITC95: VIM-1 strain IHMA599644, with imipenem 1 μg/ml, 95% inhibition of growth; for Klebsiella pneumoniae expressing VIM-1 (IHMA599644) MITC95: with imipenem 1 μg/ml, 95% inhibition of bacterial growth
How it was run: as §3

[8] = test system: Escherichia coli expressing NDM-1 (CLB30005, CLB30016); format: cell-based; conditions: with imipenem 1 μg/ml; for Escherichia coli MITC95: NDM-1 strain, 95% inhibition of growth; for Escherichia coli expressing NDM-1 (CLB30016) MITC95: 95% inhibition of bacterial growth
How it was run: as §3

[9] = target: VIM-1 (Pseudomonas aeruginosa (strain ATCC 15692 / DSM 22644 / CIP 104116 / JCM 14847 / LMG 12228 / 1C / PRS 101 / PAO1), UniProt A0A0F7KYQ8); assay: biochemical; conditions: CCF2-FA substrate, 30 pM enzyme, 2 hours at 25° C.
How it was run: as §2

[10] = ratio MITC95 PA_9798/MITC95 PA_9799
[11] = fluorescence assay, read-out: VIM-1 IC50
[12] = fold difference between efflux+ (MB9798) and efflux− (MB9799) strains, imipenem at 2 μg/mL

Cc1ccc(-c2ccc(S(=O)(=O)N[C@@H]3CCNC3)c(S(N)(=O)=O)c2-c2nn[nH]n2)c2nc(N)[nH]c12 [Example 285, (R)-4-(2-amino-7-methyl-1H-benzo[d]imidazol-4-yl)-N1-(pyrrolidin-3-yl)-3-(2H-tetrazol-5-yl)benzene-1,2-disulfonamide]
Efflux ratio [1, 10]: 1.00 | P. aeruginosa expressing IMP-1, efflux − (MB9799) MITC95 [2]: 0.3906 µM | IC50 [3]: 0.0295 nM | IC50 [4]: 0.318 nM | P. aeruginosa expressing IMP-1, efflux + (MB9798) MITC95 [5]: 0.3906 µM | Serratia marcescens MITC95 [6]: 0.7813 µM | Klebsiella pneumoniae MITC95 [7]: 0.7813 µM | Escherichia coli MITC95 [8]: 0.7813 µM | IC50 ([9]; VIM-1 IC50, fluorescence assay): 0.0916 nM

Nc1nc2c(-c3ccc(S(=O)(=O)NC4CNC[C@H]4N)c(S(N)(=O)=O)c3-c3nn[nH]n3)cccc2[nH]1 (stereo in doubt) [Example 322, 4-(2-Amino-1H-benzo[d]imidazol-4-yl)-N1-((3S,4R)-4-aminopyrrolidin-3-yl)-3-(2H-tetrazol-5-yl)benzene-1,2-disulfonamide]
Efflux ratio [1, 10]: 0.83 | P. aeruginosa expressing IMP-1, efflux − (MB9799) MITC95 [2]: 0.7813 µM | IC50 [3]: 0.0536 nM | IC50 [4]: 0.738 nM | P. aeruginosa expressing IMP-1, efflux + (MB9798) MITC95 [5]: 0.651 µM | Serratia marcescens MITC95 [6]: 1.042 µM | Klebsiella pneumoniae MITC95 [7]: 1.302 µM | Escherichia coli MITC95 [8]: 0.5208 µM | IC50 ([9]; VIM-1 IC50, fluorescence assay): 0.182 nM

Nc1nc2c(-c3ccc(S(=O)(=O)NCC4CCC(=O)N4)c(S(N)(=O)=O)c3-c3nnn[nH]3)cccc2s1 (centres unmarked) [Example 19, 4-(2-amino-1,3-benzothiazol-4-yl)-N1-[(5-oxopyrrolidin-2-yl)methyl]-3-(1H-tetrazol-5-yl)benzene-1,2-disulfonamide]
Efflux ratio [1, 10]: 1.00 | P. aeruginosa expressing IMP-1, efflux − (MB9799) MITC95 [2]: 6.25 µM | IC50 [3]: 0.0953 nM | IC50 [4]: 0.486 nM | P. aeruginosa expressing IMP-1, efflux + (MB9798) MITC95 [5]: 6.25 µM | Serratia marcescens expressing IMP-1 (CL5741) MITC95 [6]: 6.25 µM | Klebsiella pneumoniae expressing VIM-1 (IHMA599644) MITC95 [7]: 25 µM | Escherichia coli expressing NDM-1 (CLB30016) MITC95 [8]: 50 µM | IC50 [9, 11]: 0.335 nM

NCCNS(=O)(=O)c1ccc(-c2cccc3nonc23)c(-c2nn[nH]n2)c1S(N)(=O)=O [Example 239]
Efflux ratio [1, 10]: 8.00 | P. aeruginosa expressing IMP-1, efflux − (MB9799) MITC95 [2]: 0.7813 µM | IC50 [3]: 0.439 nM | IC50 [4]: 1.06 nM | P. aeruginosa expressing IMP-1, efflux + (MB9798) MITC95 [5]: 6.25 µM | Serratia marcescens expressing IMP-1 (CL5741) MITC95 [6]: 1.563 µM | Klebsiella pneumoniae expressing VIM-1 (IHMA599644) MITC95 [7]: 3.125 µM | Escherichia coli expressing NDM-1 (CLB30016) MITC95 [8]: 0.7813 µM | IC50 [9, 11]: 0.113 nM

NCC(CN)NS(=O)(=O)c1ccc(-c2cccc3[nH]c(N)nc23)c(-c2nn[nH]n2)c1S(N)(=O)=O [Example 429]
Efflux ratio [1, 12]: 1.00 | Concentration of metallo-β-lactamase inhibitor which restores susceptibility of efflux − (MB9799) strain to imipenem [2]: 0.7813 | IC50 [3]: 0.0819 nM | IC50 [4]: 0.489 nM | Concentration of metallo-β-lactamase inhibitor which restores susceptibility of efflux + (MB9798) strain to imipenem [5]: 0.7813 | Serratia marcescens MITC95 [6]: 1.563 µM | Klebsiella pneumoniae MITC95 [7]: 1.563 µM | Escherichia coli MITC95 [8]: 0.5208 µM | IC50 [9, 11]: 0.228 nM

NC[C@H](N)CNS(=O)(=O)c1ccc(-c2cnccc2N)c(-c2nn[nH]n2)c1S(N)(=O)=O [Example 223, (S)-4-(4-aminopyridin-3-yl)-N1-(2,3-diaminopropyl)-3-(2H-tetrazol-5-yl)benzene-1,2-disulfonamide]
Efflux ratio [1, 10]: 2.00 | P. aeruginosa expressing IMP-1, efflux − (MB9799) MITC95 [2]: 0.7813 µM | IC50 [3]: 1.75 nM | IC50 [4]: 4.51 nM | P. aeruginosa expressing IMP-1, efflux + (MB9798) MITC95 [5]: 1.563 µM | Serratia marcescens expressing IMP-1 (CL5741) MITC95 [6]: 0.3906 µM | Klebsiella pneumoniae expressing VIM-1 (IHMA599644) MITC95 [7]: 0.3906 µM | Escherichia coli expressing NDM-1 (CLB30016) MITC95 [8]: 0.09766 µM | IC50 ([9]; VIM-1 IC50, fluorescence assay): 1.41 nM

NS(=O)(=O)c1c(S(=O)(=O)N[C@@H]2CCNC2)ccc(-c2cccn3ccnc23)c1-c1nn[nH]n1 [Example 291, (R)-4-(imidazo[1,2-a]pyridin-8-yl)-N1-(pyrrolidin-3-yl)-3-(2H-tetrazol-5-yl)benzene-1,2-disulfonamide]
Efflux ratio [1, 10]: 1.00 | P. aeruginosa expressing IMP-1, efflux − (MB9799) MITC95 [2]: 0.7813 µM | IC50 [3]: 0.0505 nM | IC50 [4]: 0.169 nM | P. aeruginosa expressing IMP-1, efflux + (MB9798) MITC95 [5]: 0.7813 µM | Serratia marcescens MITC95 [6]: 1.563 µM | Klebsiella pneumoniae MITC95 [7]: 3.125 µM | Escherichia coli MITC95 [8]: 0.7813 µM | IC50 ([9]; VIM-1 IC50, fluorescence assay): 0.0694 nM

Nc1ncc(-c2ccc(S(=O)(=O)N[C@H]3CNC[C@H]3N)c(S(N)(=O)=O)c2-c2nn[nH]n2)s1 [Example 325, N1-((3S,4R)-4-aminopyrrolidin-3-yl)-4-(2-aminothiazol-5-yl)-3-(2H-tetrazol-5-yl)benzene-1,2-disulfonamide]
Efflux ratio [1, 10]: 2.00 | P. aeruginosa expressing IMP-1, efflux − (MB9799) MITC95 [2]: 0.7813 µM | IC50 [3]: 0.724 nM | IC50 [4]: 1.22 nM | P. aeruginosa expressing IMP-1, efflux + (MB9798) MITC95 [5]: 1.563 µM | Serratia marcescens MITC95 [6]: 1.563 µM | Klebsiella pneumoniae MITC95 [7]: 3.125 µM | Escherichia coli MITC95 [8]: 0.7813 µM | IC50 ([9]; VIM-1 IC50, fluorescence assay): 0.896 nM

NCc1sc(N)nc1-c1cccc(-c2ccc(S(=O)(=O)N[C@@H]3CCNC3)c(S(N)(=O)=O)c2-c2nnn[nH]2)c1 [Example 432]
Efflux ratio [1, 12]: 1.00 | Concentration of metallo-β-lactamase inhibitor which restores susceptibility of efflux − (MB9799) strain to imipenem [2]: 0.7813 | Concentration of metallo-β-lactamase inhibitor which restores susceptibility of efflux + (MB9798) strain to imipenem [5]: 0.7813 | Serratia marcescens MITC95 [6]: 0.7813 µM | Klebsiella pneumoniae MITC95 [7]: 1.563 µM | Escherichia coli MITC95 [8]: 0.7813 µM | IC50 ([9]; VIM-1 IC50, fluorescence assay): 0.387 nM

Nc1nc2c(-c3ccc(S(=O)(=O)N[C@@H](N)c4ccccn4)c(S(N)(=O)=O)c3-c3nnn[nH]3)cccc2s1.O=C(O)C(F)(F)F [Example 99, (R)-(4-(2-aminobenzo[d]thiazol-4-yl)-2-sulfamoyl-3-(1H-tetrazol-5-yl)phenylsulfonamido)(pyridin-2-yl)methanaminium 2,2,2-trifluoroacetate]
Efflux ratio [1, 10]: 8.00 | P. aeruginosa expressing IMP-1, efflux − (MB9799) MITC95 [2]: 3.125 µM | P. aeruginosa expressing IMP-1, efflux + (MB9798) MITC95 [5]: 25 µM | Serratia marcescens expressing IMP-1 (CL5741) MITC95 [6]: 6.25 µM | Klebsiella pneumoniae expressing VIM-1 (IHMA599644) MITC95 [7]: 25 µM | Escherichia coli expressing NDM-1 (CLB30016) MITC95 [8]: 12.5 µM | IC50 [9, 11]: 0.499 nM
